Data reported in US20240190903A1, “COMPOUNDS FOR PROGRAMMABLE PROTEIN DEGRADATION AND METHODS OF USE FOR THE TREATMENT OF DISEASE” (Mayo Foundation for Medical Education and Research, priority 2021, published 2024).

Tests used:
VCaP cells = test: MTS cell growth assay in VCaP cells; assay type: cell-based, human; conditions: compound added to cells, different doses
Experimental: VCaP cells were seeded at the density of 5,000 cells per well in 96-well plate overnight. At the indicated time points, optical density (OD) of cells was measured by microtiter reader (Biotek) at 490 nanometer after incubation with MTS (Promega) for 2 hours at 37° C. in a cell incubator. For the treatment with CP-2, ICG-001 or PRI-724, cells were seeded in 96-well plate overnight followed by adding indicated compounds. OD values were measured at the indicated time points.

[1] = tested on: PSGs and canonical β-Catenin target genes CCND1 and c-MYC; test: RT-qPCR and western blot of PSGs, CCND1 and c-MYC in VCaP cells; assay type: cell-based, human
Experimental: PRI-724 is a pro-drug of C-82, a second-generation specific β—Catenin/CBP antagonist.
The total RNA was extracted from cultured cells or organoids using Trizol reagent (Thermo Fisher Scientific) according to the manufacturer's instructions. Complementary DNA was synthesized using reverse transcriptase (Promega). mRNA expression level was determined by real-time quantitative PCR (qPCR) using SYBR Green Mix (Thermo Fisher Scientific) with the realtime PCR system (Bio-Rad). Relative gene expression was normalized to the expression of house-keeping gene Actin Beta (ACTB).

VCaP xenografts = VCaP xenografts in SCID mice; assay type: in vivo; conditions: 25 mg/kg, 23 days
Experimental: For IHC, tissues were rehydrated, endogenous peroxidase activity was destroyed, and antigens were retrieval. Antibodies for IHC as following: anti-AR (ab108341, Abcam), anti-ERG (ab92513, Abcam), anti-Ki67 (ab15580), anti-UMPS (NOVUS, #85896), anti-RRM1 (Cell signaling technology, #8637), anti-CBP (Santa Cruz Biotechnology, sc-583), anti-LEF1 (Cell signaling technology, #2230S). For quantification, the staining score was determined by multiplying the percentage of positive cells and the intensity ranged from 1 (weak staining), 2 (median staining), and 3 (strong staining). For Ki67 quantification, cells with positive staining in the nucleus were included to calculate the percentage of Ki67 positive-staining cells.
Six-week SCID male mice were used in the study. Mice were subcutaneously injected with VCaP cells (5×10^6) mixed with Matrigel mixture (1×PBS: Matrigel (BD Biosciences)=1:1). After the xenografts reached a size of approximately 100 mm^3, mice were treated intraperitoneally with vehicle (90% corn oil (Sigma-Aldrich)+10% DMSO), ICG-001 or CBP PROTAC CP2 at 25 mg/kg for 5 days per week. For LEF1/TCF O′PROTAC administration, mice were transplanted with LuCaP23.1 PDX tumors in the approximately same volume. […] Tumor length (L) and width (W) were measured every 3 days, and tumor volumes were calculated by the formula: (L×W^2)/2. […]

[2] = physiological pH 7.4; hydrolysis of phthalimide and glutarimide moiety; cited from earlier work
293T and VCaP cell lines = test: Fluorescent microscopy of FITC-labelled ERG O′PROTAC transfection/uptake; assay type: cell-based, human; conditions: 293T cells
Experimental: FIGS. 2A-2C. ERG O′PROTACs degrade ERG protein in cultured cells. (FIG. 2A) 293T cells were transfected with FITC-labelled ERG O′PROTAC-13 (100 nM and 1,000 nM), and the transfection efficiency was monitored 48 hours post-transfection using a fluorescent microscope. Scale bar: 50 μm. (FIG. 2B) 293T cells were transfected with HA-ERG plasmid and a control or six indicated ERG O′PROTACs (100 nM) and harvested for western blot analysis 48 hours post-transfection. ERK2 was used as a loading control. (FIG. 2C) VCaP cells were transfected with a control or six indicated ERG O′PROTACs (100 nM), and cells were harvested for western blot analysis 48 hours post-transfection. Both endogenous full-length (FL) wild-type and TMPRSS2-ERG (T2-ERG) truncated ERG were detected.
FIGS. 12A-12H. Phthalic acid-based ERG O′PROTAC degrades ERG oncoprotein. […] The P values were determined using the unpaired two-tailed Student's t-test. n.s. represents not significant by comparing the values in ERG O′PROTAC-treated groups to the control OP-treated group. […] The remaining ERG protein (%) was calculated by normalizing the value of each group to that of the group without ERG OP-C-P1 treatment. (FIG. 12H) The concentration of ERG OP-C-P1 degrading 50% of ERG protein (DC50) was calculated with Prism software. […]

Row | Compound | VCaP cell growth (MTS) (VCaP cells) | expression of PSGs, CCND1 and c-MYC at mRNA and protein levels [1] | further results
1 | O=C1[C@H](Cc2ccc(O)cc2)N2C(=O)CCN(C(=O)NCc3ccccc3)[C@H]2CN1Cc1cccc2ccccc12 [ICG-001] | inhibited cell growth | decreased expression | mouse body weight (VCaP xenografts): did not result in obvious deleterious effect
2 | C[C@H]1[C@H]2N(C(=O)CN(C)N2C(=O)NCc2ccccc2)[C@@H](Cc2ccc(OP(=O)(O)O)cc2)C(=O)N1Cc1cccc2cccnc12 [PRI-724] | inhibition | inhibition | –
3 | O=C1CCC(N2C(=O)c3ccccc3C2=O)C(=O)N1 (centres unmarked) [thalidomide] | – | – | stability [2]: poor stability
4 | FITC-ERG OP-C1: Forward 5′-FITC-ACGGACCGGAAATCCGGTT-3′; reverse 5′-P1-AACCGGATTTCCGGTCCGT-3′ | – | – | uptake efficacy at 100 nM versus 1,000 nM (293T and VCaP cell lines): no difference in uptake efficacy; cellular uptake with lipofectamine 2000 versus mock transfection (293T and VCaP cell lines; 100 or 1,000 nM): greatly enhanced the cellular uptake
